Results as given in patent US20040161794A1 (The General Hospital Corporation, priority 2002, published 2004).

Tests used:
[1] = test system: rat hypothalamic tissue; conditions: injected intravenously or included in the in vitro incubation of rat hypothalamic tissue; cited from earlier work
[2] = target: T1, Na^+ pump (Homo sapiens, UniProt P05023); experiment: Inhibition of Na+ pump activity (active Rb+ uptake) in human erythrocytes; type: cell-based; conditions: 1 mM, standard
T1 construct: measuring active ^86Rb^+(K^+ analogue) transport into human erythrocytes; endogenous in cells; host or cells: human erythrocytes
Procedure: After purifying the conditioned medium by reverse-phase column chromatography (Sep-Pak, Waters), the resulting sample was assayed using the ^86Rb uptake assay to determine a change in inhibition as previously described in Carilli et al., J. Biol. Chem., 260:1027-1031 (1985).
PC12 cells are studied for the presence of the genes of interest, then the release of inhibitor from these cells is confirmed using the method of Komiyama (Komiyama et al., J. Hypertens., 19:229-236 (2001)). Collected supernatants are acidified to dissociate OLC from putative carrier proteins, and purified using Sep-Pak C18 cartridges eluted with acetonitrile.

[3] = test system: cultured rat myocytes; conditions: cited from earlier work
[4] = test system: vascular rings from rat pulmonary artery and aorta; conditions: in vitro; cited from earlier work
[5] = test system: PC12 cells; conditions: added to the culture media of PC12 cells; cited from earlier work

CC[C@H](C)[C@@H]1NC(=O)[C@H](CCCNC(=N)N)NC(=O)[C@H](CC(=O)O)NC(=O)[C@H](CCSC)NC(=O)[C@H](CCCNC(=N)N)NC(=O)CNC(=O)CNC(=O)[C@H](Cc2ccccc2)NC(=O)[C@@H](NC(=O)[C@H](CO)NC(=O)[C@H](CO)NC(=O)[C@H](CCCNC(=N)N)NC(=O)[C@H](CCCNC(=N)N)NC(=O)[C@H](CC(C)C)NC(=O)[C@@H](N)CO)CSSC[C@@H](C(=O)N[C@@H](CC(N)=O)C(=O)N[C@@H](CO)C(=O)N[C@@H](Cc2ccccc2)C(=O)N[C@@H](CCCNC(=N)N)C(=O)N[C@@H](Cc2ccc(O)cc2)C(=O)O)NC(=O)CNC(=O)[C@H](CC(C)C)NC(=O)CNC(=O)[C@H](CO)NC(=O)[C@H](CCC(N)=O)NC(=O)[C@H](C)NC(=O)CNC1=O [atrial natriuretic peptide]
release of the Na+,K+-ATPase inhibitor [1]: decreased the release

C[C@@H]1O[C@@H](O[C@H]2C[C@@H](O)[C@]3(CO)[C@H]4[C@H](O)C[C@]5(C)[C@@H](C6=CC(=O)OC6)CC[C@]5(O)[C@@H]4CC[C@]3(O)C2)[C@H](O)[C@H](O)[C@H]1O [ouabain]
inhibition of active Na+ transport [2]: Complete inhibition
toxicity at the same intracellular Ca++ concentration [3]: toxic
effect on isolated vascular rings [4]: unaffected by Oua except at toxic concentrations

CC(=O)[C@H]1CC[C@H]2[C@@H]3CCC4=CC(=O)CC[C@]4(C)[C@H]3CC[C@]12C [progesterone]
amount of OLC release into culture supernatants [5]: augmented in a dose-dependent manner
